Consider two compounds from PubChem BioAssay AID2060336 (Molecular Pharmacology Branch, DTP, NCI, 2025).

Each structure is given as a SMILES string. pIC50: −log10 of the molar value. Several values for one entry are separate records, joined by “and”; a condition that tells them apart may be missing. Equal values may be shown once.

This assay has as its system 958767-090-R-J1-PDC spheroid growth. The assay is described as follows: Anticancer human tumor 958767-090-R-J1-PDC patient-derived head and neck squamous carcinoma cell line growth inhibition [IpAb]. The following applies: spheroids with HUVEC and MSC; for viability, T/C: stronger effect = lower value. In outline:
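Multi-cell spheroids of 60% tumour cells, 25% HUVEC and 15% MSC in ultra-low-attachment U-bottom wells, treated with agents combined with ipatasertib or abemaciclib. Half-log ranges top out near clinical Cmax, or 10 microM when Cmax is unknown.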
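Also: spheroids exposed to agents for 7 days.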
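For viability, T/C in this document: 100% = DMSO vehicle control wells.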

`Cn1nccc1Nc1nccc(-c2ccn(C(CO)c3ccc(Cl)c(F)c3)c(=O)c2)n1` (configuration not stated) + CCN1CCN(Cc2ccc(Nc3ncc(F)c(-c4cc(F)c5nc(C)n(C(C)C)c5c4)n3)nc2)CC1: the negative logarithm of the IC50 (pIC50) runs as follows: (curve of first compound, second compound 0.01 µM) 5.80; (curve of first compound, second compound 0.0316 µM) 5.79; (curve of first compound, second compound 0.1 µM) 6.36; (curve of first compound, second compound 0.316 µM) 6.60; (curve of first compound, second compound 1 µM) 5.99. The viability, T/C is 72.3% (second compound 0.01 µM, first compound 0.0316 µM); 62.5% (second compound 0.01 µM, first compound 0.1 µM); 61.3% (second compound 0.01 µM, first compound 0.316 µM); 55.5% (second compound 0.01 µM, first compound 1 µM); 43.8% (second compound 0.01 µM, first compound 3.16 µM); 24.9% (second compound 0.01 µM, first compound 10 µM). In addition, the viability, T/C runs as follows: (second compound 0.0316 µM, first compound 0.0316 µM) 69.3%; (second compound 0.0316 µM, first compound 0.1 µM) 60.3%; (second compound 0.0316 µM, first compound 0.316 µM) 53%; (second compound 0.0316 µM, first compound 1 µM) 55.2%; (second compound 0.0316 µM, first compound 3.16 µM) 46.8%; (second compound 0.0316 µM, first compound 10 µM) 17.1%. The viability, T/C (second compound 0.1 µM, first compound 0.0316 µM) was 63.3%; the viability, T/C (second compound 0.1 µM, first compound 0.1 µM) is 50.6%; the viability, T/C (second compound 0.1 µM, first compound 0.316 µM) is 51.5%; the viability, T/C (second compound 0.1 µM, first compound 1 µM) is 46.4%; the viability, T/C (second compound 0.1 µM, first compound 3.16 µM) was 36.8%; the viability, T/C (second compound 0.1 µM, first compound 10 µM) was 18.6%. Besides, the viability, T/C was 61.4% (second compound 0.316 µM, first compound 0.0316 µM); 50.5% (second compound 0.316 µM, first compound 0.1 µM); 46.8% (second compound 0.316 µM, first compound 0.316 µM); 47.7% (second compound 0.316 µM, first compound 1 µM); 31.6% (second compound 0.316 µM, first compound 3.16 µM); 23.2% (second compound 0.316 µM, first compound 10 µM). Besides, the viability, T/C runs as follows: (second compound 1 µM, first compound 0.0316 µM) 71.1%; (second compound 1 µM, first compound 0.1 µM) 60.2%; (second compound 1 µM, first compound 0.316 µM) 60.2%; (second compound 1 µM, first compound 1 µM) 50.7%; (second compound 1 µM, first compound 3.16 µM) 38.8%; (second compound 1 µM, first compound 10 µM) 21.7%.
As to `CCCS(=O)(=O)Nc1ccc(F)c(C(=O)c2c[nH]c3ncc(-c4ccc(Cl)cc4)cc23)c1F`, the viability, T/C runs as follows: (compound 0.0316 µM) 86.3% and 103%; (compound 0.1 µM) 93.5% and 92.7%; (compound 0.316 µM) 92.7% and 98.5%; (compound 1 µM) 94.9% and 96%; (compound 3.16 µM) 98.5% and 96.4%; (compound 10 µM) 65.5% and 66.7%. Further, for the setting “curve of compound”, the pIC50 was less than 5.00.

As a reminder, the pIC50 is the IC50 on a negative log10 scale, so that one unit is a factor of ten. The viability, T/C is the ratio of treated to control.
